Data published in publication PMC6325200, “Effects of Microplate Type and Broth Additives on Microdilution MIC Susceptibility Assays” (Antimicrobial Agents and Chemotherapy, 2018).
Converted amounts (≈) assume the structure as drawn. “And” between values parts separate entries of the source, which are not always exact repeats. Equal entries are not always repeated. Where two headings read alike, the source gives them in different places. Where a SMILES comes first, the peptide text is derived from it. Bridges are numbered along the chain shown (N, C = ends). [ ]: non-standard residue; d: D form. The star is where a group is joined. X1 = CC[C@H](C)CCCCC(=O)*; Dab = NCC[C@H](N)C(=O)O

Assays:
[1] = test system: E. coli; conditions: literature value; cited from earlier work
[2] = test system: E. coli ATCC 25922; assay: microbe, parasite or virus in culture
Method: A positive control of a row of just the bacteria and a negative control of only the medium were included for every plate tested.
The compounds along with standard antibiotics were serially diluted 2-fold across the 96-well plates. […] A sample of each culture was then diluted 40-fold in fresh MH broth (in presence and absence of Tween) and incubated at 37°C for 2 to 3 h.
For experiments in the presence of surfactant, 2% beractant (25 mg/ml) was added to the mid-log-phase cultures and mixed gently and added to all the 96-well plates. For experiments in the presence of serum, a mixture of 50% of human serum along with 50% MHB was prepared and used throughout the experiment.

[3] = literature values, reference given; cited from earlier work
Excerpt: Other assay additives can affect MIC values. […] Plasma protein binding has been implicated as a major factor limiting the active free concentration of many clinically important antibiotics ([37][–][42]).

[4] = test system: A. baumannii ATCC 19606; assay: microbe, parasite or virus in culture; conditions: n = 2
In short: (§1)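 MH broth with or without Tween received a 40-fold dilution of each culture, held at 37°C for 2–3 h. Twofold dilution series of the compounds and standard antibiotics are run in 96-well plates.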

[5] = test system: P. aeruginosa ATCC 10145; assay: microbe, parasite or virus in culture; conditions: n = 2
In short: as §1

[6] = test system: K. pneumoniae ATCC 13883; assay: microbe, parasite or virus in culture; conditions: n = 2
In short: as §1

[7] = 8 µg/ml, 24 h, cited from earlier work; for % of expected concentration detected: MHB
Excerpt: (§2) Members of the lipopeptide polymyxin class of antibiotics (polymyxin B [compound 7a] and polymyxin E [or colistin, compound 7b]) are important last-line therapeutic agents against many multidrug-resistant Gram-negative bacteria ([27][–][31]). They consist of an N-terminal fatty acid side chain that is attached to a polycationic deca-peptide backbone (Fig. 1) with physicochemical properties similar to those of the lipoglycopeptides. These structural features confer amphipathicity, which is a key feature of many other cationic antimicrobial peptides (CAMPs) ([32][–][34]). As mentioned earlier, p ...

[8] = test system: over 200 strains; conditions: 0.002% polysorbate added; cited from earlier work
Excerpt: as §2

Question: Which “MIC (literature)” value [1] does the source give for `CC[C@H](C)CCCCC(=O)N[C@@H](CCN)C(=O)N[C@H](C(=O)N[C@@H](CCN)C(=O)N[C@H]1CCNC(=O)[C@H]([C@@H](C)O)NC(=O)[C@H](CCN)NC(=O)[C@H](CCN)NC(=O)[C@H](CC(C)C)NC(=O)[C@@H](CC(C)C)NC(=O)[C@H](CCN)NC1=O)[C@@H](C)O` [Colistin, colistin] (X1-[Dab]T[Dab][Dab][Dab][dL]L[Dab][Dab]T; lactam 4-C (inferred); N-terminus assumed) here?
Answer: 0.5–2 ([70]) µg/ml

Question: And the MIC ([2]; Corning NBS, MH + 2% LHB, 2% LS, n = 2)?
Answer: 0.03 to 0.06 mg/L

Question: And the MIC ([2]; Corning NBS, MH + 2% LHB, 50% HS, n = 2)?
Answer: ≤0.03 mg/L

Question: And the MIC ([2]; Corning NBS, MH + 2% LHB, no additive, n = 2)?
Answer: ≤0.03 mg/L

Question: And the MIC ([2]; Corning NBS, MH + T80, 2% LS, n = 2)?
Answer: 0.03 to 0.06 mg/L

Question: What about the MIC ([2]; Corning NBS, MH + T80, 50% HS, n = 2) of the same compound?
Answer: ≤0.03 mg/L

Question: What about the MIC ([2]; Corning NBS, MH, 2% LS, n = 2) of the same compound?
Answer: ≤0.03 mg/L

Question: What about the MIC ([2]; Corning NBS, MH, 50% HS, n = 2) of the same compound?
Answer: ≤0.03 mg/L

Question: What about the MIC ([2]; Corning PS plate, MHB −T80, no additive, n = 2) of the same compound?
Answer: 0.06 mg/L (≈ 0.0513 µM)

Question: What about the MIC ([2]; Corning PS, MH + 2% LHB, 2% LS, n = 2) of the same compound?
Answer: 0.06 to 0.125 mg/L

Question: And the MIC ([2]; Corning PS, MH + 2% LHB, 50% HS, n = 2)?
Answer: ≤0.03 mg/L

Question: And the MIC ([2]; Corning PS, MH + 2% LHB, no additive, n = 2)?
Answer: 1 mg/L

Question: And the MIC ([2]; Corning PS, MH + T80, 2% LS, n = 2)?
Answer: 0.03 to 0.06 mg/L

Question: And the MIC ([2]; Corning PS, MH + T80, 50% HS, n = 2)?
Answer: ≤0.03 mg/L

Question: What about the MIC ([2]; Corning PS, MH, 2% LS, n = 2) of the same compound?
Answer: 0.06 to 0.25 mg/L

Question: And the MIC ([2]; Corning PS, MH, 50% HS, n = 2)?
Answer: ≤0.03 mg/L

Question: What about the MIC ([2]; Corning TC plate, MHB +0.002% T80, no further additive, n = 2) of the same compound?
Answer: 1 mg/L (≈ 0.855 µM)

Question: What about the MIC ([2]; Corning TC plate, MHB −T80, no additive, n = 2) of the same compound?
Answer: 0.5 to 1 mg/L

Question: And the MIC ([2]; Corning TC, MH + 2% LHB, 2% LS, n = 2)?
Answer: 2 to 4 mg/L

Question: And the MIC ([2]; Corning TC, MH + 2% LHB, 50% HS, n = 2)?
Answer: 0.25 to 0.5 mg/L

Question: What about the MIC ([2]; Corning TC, MH + 2% LHB, no additive, n = 2) of the same compound?
Answer: ≤0.03 mg/L

Question: What about the MIC ([2]; Corning TC, MH + T80, 2% LS, n = 2) of the same compound?
Answer: 1 to 2 mg/L

Question: And the MIC ([2]; Corning TC, MH + T80, 50% HS, n = 2)?
Answer: 0.25 to 0.5 mg/L

Question: What about the MIC ([2]; Corning TC, MH, 2% LS, n = 2) of the same compound?
Answer: 0.5 to 1 mg/L

Question: What about the MIC ([2]; Corning TC, MH, 50% HS, n = 2) of the same compound?
Answer: 0.125 to 0.5 mg/L

Question: And the “MIC” value ([2]; NBS plates)?
Answer: ≤ 0.03 mg/L

Question: And the MIC ([2]; Nunc PS plate, MHB +0.002% T80, n = 2)?
Answer: ≤0.03 mg/L

Question: What about the MIC ([2]; Nunc PS plate, MHB −T80, n = 2) of the same compound?
Answer: 0.125 to 1 mg/L

Question: And the MIC ([2]; Nunc U TC plate, MHB +0.002% T80, n = 2)?
Answer: 2 mg/L (≈ 1.71 µM)

Question: What about the MIC ([2]; Nunc U TC plate, MHB −T80, n = 2) of the same compound?
Answer: 0.5 to 1 mg/L

Question: What about the MIC ([2]; Nunc flat TC plate, MHB +0.002% T80, n = 2) of the same compound?
Answer: 1 to 2 mg/L

Question: What about the MIC ([2]; Nunc flat TC plate, MHB −T80, n = 2) of the same compound?
Answer: 1 to 2 mg/L

Question: And the “MIC” value ([2]; PS plates)?
Answer: ≤0.03 to 1 mg/L

Question: And the “MIC” value ([2]; PS plates with T80)?
Answer: ≤0.03 to 0.25 mg/L

Question: And the “MIC” value ([2]; TC plates)?
Answer: 0.5 to 4 mg/L

Question: And the MIC ([2]; Trek PS plate, MHB +0.002% T80, no further additive, n = 2)?
Answer: ≤0.03 mg/L

Question: And the MIC ([2]; Trek PS plate, MHB −T80, no additive, n = 2)?
Answer: ≤0.03 mg/L

Question: And the MIC ([2]; Trek PS, MH + 2% LHB, 2% LS, n = 2)?
Answer: ≤0.03 mg/L

Question: And the MIC ([2]; Trek PS, MH + 2% LHB, 50% HS, n = 2)?
Answer: 0.03 to 0.06 mg/L

Question: What about the MIC ([2]; Trek PS, MH + 2% LHB, no additive, n = 2) of the same compound?
Answer: 0.03 to 0.06 mg/L

Question: And the MIC ([2]; Trek PS, MH + T80, 2% LS, n = 2)?
Answer: ≤0.03 mg/L

Question: And the MIC ([2]; Trek PS, MH + T80, 50% HS, n = 2)?
Answer: ≤0.03 mg/L

Question: What about the MIC ([2]; Trek PS, MH, 2% LS, n = 2) of the same compound?
Answer: ≤0.03 mg/L

Question: What about the MIC ([2]; Trek PS, MH, 50% HS, n = 2) of the same compound?
Answer: ≤0.03 mg/L

Question: And the protein binding [3]?
Answer: 50 to 60% and 60%

Question: What about the MIC ([4]; Corning NBS, MHB +T80) of the same compound?
Answer: ≤ 0.03 mg/L

Question: And the MIC ([4]; Corning NBS, MHB -T80)?
Answer: ≤ 0.03 mg/L

Question: What about the MIC ([4]; Corning PS, MHB +T80) of the same compound?
Answer: 0.06 mg/L (≈ 0.0513 µM)

Question: And the MIC ([4]; Corning PS, MHB -T80)?
Answer: 0.06 to 0.125 mg/L

Question: What about the MIC ([4]; Corning TC, MHB +T80) of the same compound?
Answer: 1 to 2 mg/L

Question: What about the MIC ([4]; Corning TC, MHB -T80) of the same compound?
Answer: 0.5 to 1 mg/L

Question: And the MIC ([5]; Corning NBS, MHB +T80)?
Answer: 0.125 mg/L (≈ 0.107 µM)

Question: What about the MIC ([5]; Corning NBS, MHB -T80) of the same compound?
Answer: 0.06 mg/L (≈ 0.0513 µM)

Question: What about the MIC ([5]; Corning PS, MHB +T80) of the same compound?
Answer: 0.25 to 0.5 mg/L

Question: What about the MIC ([5]; Corning PS, MHB -T80) of the same compound?
Answer: 0.25 to 0.5 mg/L

Question: What about the MIC ([5]; Corning TC, MHB +T80) of the same compound?
Answer: 1 to 2 mg/L

Question: And the MIC ([5]; Corning TC, MHB -T80)?
Answer: 0.5 to 2 mg/L

Question: And the MIC ([6]; Corning NBS, MHB +T80)?
Answer: ≤ 0.03 mg/L

Question: And the MIC ([6]; Corning NBS, MHB -T80)?
Answer: ≤ 0.03 mg/L

Question: What about the MIC ([6]; Corning PS, MHB +T80) of the same compound?
Answer: ≤ 0.03 mg/L

Question: And the MIC ([6]; Corning PS, MHB -T80)?
Answer: 0.125 to 0.25 mg/L

Question: What about the MIC ([6]; Corning TC, MHB +T80) of the same compound?
Answer: 0.25 to 0.5 mg/L

Question: And the MIC ([6]; Corning TC, MHB -T80)?
Answer: 2 mg/L (≈ 1.71 µM)

Question: What about the “% of concentration remaining” value ([7]; Greiner untreated PS microwell plates) of the same compound?
Answer: 2%

Question: What about the “% of expected concentration detected” value ([7]; PP tubes) of the same compound?
Answer: 90%

Question: What about the “% of expected concentration detected” value ([7]; PS tubes) of the same compound?
Answer: 84%

Question: What about the “% of expected concentration detected” value ([7]; glass tubes) of the same compound?
Answer: 80%

Question: What about the “% of concentration remaining” value ([7]; Nunc untreated PS microwell plates) of the same compound?
Answer: 70%

Question: And the “more potent MICs with surfactant present” value [8]?
Answer: 4- to 8 fold
